Drawing on ChEMBL document CHEMBL6121046, “Discovery of Novel Hydrazide-Based HDAC3 Inhibitors as Epigenetic Immunomodulators for Cancer Immunotherapy” (J Med Chem, 2025), this text covers CL, MRT inf and Activity for 1 compound.

Data set [1] is described as follows: Clearance in Sprague-Dawley rat at 20 mg/kg, iv measured upto 12 hrs by LC-MS/MS analysis. The format is ADME, organism-based. Particulars: in vivo.
A short description of data set [2]: MRT (0 to infinity) in Sprague-Dawley rat at 20 mg/kg, iv measured upto 12 hrs by LC-MS/MS analysis. The format is ADME, organism-based. Particulars: in vivo.
Data set [3] in a line: Toxicity in C57BL/6 mouse allografted with mouse MC38 cells assessed as body weight loss in presence of NP19 PD-L1 inhibitor at 50 mg/kg, po treated 5 days after cell inoculation 19 th day. Format: organism-based. Particulars: in vivo, 360 h, time 15 day.
Data set [4] concerns Mus musculus. Nature of the data set: Immunomodulatory effect in C57BL/6 mouse allografted mouse MC38 cells assessed as increase in tumor infiltrating lymphocytes by measuring increase in […] in mouse lymph nodes in presence of NP19 PD-L1 inhibitor at 50 mg/kg, po treated 5 days after cell inoculation 19 th day by flow cytometry analysis (reference value: 20.3%). Particulars: time 15 day. Format: functional. For orientation: A flow cytometer gives signals particle by particle.

Data set [5] relates to Mus musculus. Nature of the data set: Induction of PD-L1 expression in tumor in C57BL/6 mouse allografted with mouse MC38 cells at 50 mg/kg, po treated 5 days after cell inoculation 19 th day by immunofluorescence analysis. Particulars: time 15.0 day. The format is functional, organism-based.
Data set [6] is described as follows: Toxicity in C57BL/6 mouse allografted with mouse MC38 cells assessed as pathological changes in kidney at 50 mg/kg, po treated 5 days after cell inoculation 19 th day by hematoxylin and eosin analysis. Format: organism-based. Particulars: in vivo, 360 h, time 15 day.
Data set [7] relates to Mus musculus. Kind of data set: Induction of acetylated H3 level in tumor in C57BL/6 mouse allografted with mouse MC38 cells at 50 mg/kg, po treated 5 days after cell inoculation 19 th day by immunofluorescence analysis. The following applies: time 15.0 day. Format: functional, organism-based.

Each structure is given as a SMILES string. Calls of active or inactive are those of the source. No cut-off for these calls is given here.

`CCCNNC(=O)c1ccc(CNC(=O)c2cnc(-c3ccc4occc4c3)[nH]2)cc1`: in data set [1], the CL was determined as 27.8 mL/min/kg. The MRT inf (usually a mean duration of stay, worked out from the concentration-time curve) in data set [2] turned out to be 1.2 h. Also, the values for the Activity entry (in data set [3]; in the data set with Mus musculus [4]; in data set [6]) were “Non-toxic”, 31.6% and “Non-toxic”, respectively. Further, the result in the data set on Mus musculus [5] and in the data set on Mus musculus [7] was Active.
